pEC50: −log10 of the molar value.
Each compound was assayed on Cell Necrosis (assay: Cell necrosis assay / cell viability assay (necrosis inhibitor activity)). Details: necrosis inhibitor activity; EC data for 14-191 extrapolated; read-out: EC50.
Assay type: cell-based

SMILES	pEC50
O=C(c1ccccc1)N1CCN(C(=O)N2N=CCC2c2ccccc2)CC1 (centres unmarked) [Compound 95, (4-benzoylpiperazin-1-yl)(5-phenyl-4,5-dihydro-1H-pyrazol-1-yl)methanone]	5.00 to 6.00
O=C(N1CC(Oc2cccc(F)c2)C1)N1N=CCC1c1ccccc1 (centres unmarked) [Compound 61, (3-(3-fluorophenoxy)azetidin-1-yl)(5-phenyl-4,5-dihydro-1H-pyrazol-1-yl)methanone]	6.00 to 9.00
CNC(=O)c1cc(OC2CN(C(=O)N3N=CCC3c3cc(F)cc(F)c3)C2)ccc1Cl (centres unmarked) [Compound 161]	6.00 to 9.00
O=C(N1CC(Oc2ccc3oc(=O)[nH]c3c2)C1)N1N=CCC1c1cc(F)cc(F)c1 (centres unmarked) [Compound 185]	6.00 to 9.00
O=C(NC1CCC(c2ccccc2)C1)N1N=CCC1c1ccccc1 (centres unmarked) [Compound 21, 5-phenyl-N-(3-phenylcyclopentyl)-4,5-dihydro-1H-pyrazole-1-carboxamide]	6.00 to 9.00
O=C(N1CCN(c2ncc(F)cn2)CC1)N1N=CCC1c1cccc(F)c1 (centres unmarked) [Compound 100, (5-(3-fluorophenyl)-4,5-dihydro-1H-pyrazol-1-yl)(4-(5-fluoropyrimidin-2-yl)piperazin-1-yl)methanone]	6.00 to 9.00
O=C(N1CC(Cc2ccccc2)C1)N1N=CCC1c1ccccc1 (centres unmarked) [Compound 16, (3-benzylazetidin-1-yl)(5-phenyl-4,5-dihydro-1H-pyrazol-1-yl)methanone]	6.00 to 9.00
O=C(N1CC(Oc2ccc(-c3ncc[nH]3)cc2)C1)N1N=CCC1c1cc(F)cc(F)c1 (centres unmarked) [Compound 166]	6.00 to 9.00
C[C@H]1CN(c2ncc(F)cn2)CCN1C(=O)N1N=CC[C@H]1c1cc(F)cc(F)c1 [Compound 118A, ((S)-5-(3,5-difluorophenyl)-4,5-dihydro-1H-pyrazol-1-yl)((S)-4-(5-fluoropyrimidin-2-yl)-2-methylpiperazin-1-yl)methanone]	6.00 to 9.00
Cc1csc(N2CCN(C(=O)N3N=CCC3c3ccccc3)CC2)n1 (centres unmarked) [Compound 105, (4-(4-methylthiazol-2-yl)piperazin-1-yl)(5-phenyl-4,5-dihydro-1H-pyrazol-1-yl)methanone]	5.00 to 6.00
O=C(N1CC(=Cc2ccc(F)cc2F)C1)N1N=CCC1c1cc(F)cc(F)c1 (centres unmarked) [Compound 55, (3-(2,4-difluorobenzylidene)azetidin-1-yl)(5-(3,5-difluorophenyl)-4,5-dihydro-1H-pyrazol-1-yl)methanone]	6.00 to 9.00
O=C(N1CC(Oc2ccccc2Cl)C1)N1N=CCC1c1ccccc1 (centres unmarked) [Compound 64, (3-(2-chlorophenoxy)azetidin-1-yl)(5-phenyl-4,5-dihydro-1H-pyrazol-1-yl)methanone]	6.00 to 9.00
O=C(N1CC[C@@H](Oc2cccc(Cl)c2)C1)N1N=CCC1c1ccccc1 (stereo partly drawn) [Compound 35, ((R)-3-(3-chlorophenoxy)pyrrolidin-1-yl)(5-phenyl-4,5-dihydro-1H-pyrazol-1-yl)methanone]	5.00 to 6.00
O=C(N1CC(Oc2ccc(F)nc2)C1)N1N=CCC1c1ccccc1 (centres unmarked) [Compound 73, (3-((6-fluoropyridin-3-yl)oxy)azetidin-1-yl)(5-phenyl-4,5-dihydro-1H-pyrazol-1-yl)methanone]	6.00 to 9.00
O=C(N1CCN(c2nccc(O)n2)CC1)N1N=CCC1c1ccccc1 (centres unmarked) [Compound 103, (4-(4-hydroxypyrimidin-2-yl)piperazin-1-yl)(5-phenyl-4,5-dihydro-1H-pyrazol-1-yl)methanone]	5.00 to 6.00
O=C(N1CC[C@H](Oc2ccccc2)C1)N1N=CCC1c1ccccc1 (stereo partly drawn) [Compound 27B, ((S)-3-phenoxypyrrolidin-1-yl)(S-phenyl-4,5-dihydro-1H-pyrazol-1-yl)methanone]	6.00 to 9.00

Same assay, conditions: necrosis inhibitor activity; compounds outside 14-191; read-out: EC50

SMILES	pEC50
Nc1ccc(F)c(OC2CN(C(=O)N3N=CC[C@H]3c3cc(F)cc(F)c3)C2)n1 [Compound 251, (S)-(3-((6-amino-3-fluoropyridin-2-yl)oxy)azetidin-1-yl)(5-(3,5-difluorophenyl)-4,5-dihydro-1H-pyrazol-1-yl)methanone]	6.00 to 9.00
O=C(N1CC(=Cc2ccc3c(c2)NC(=O)C3(F)F)C1)N1N=CC[C@H]1c1cc(F)cc(F)c1 [Compound 283, (S)-6-((1-(5-(3,5-difluorophenyl)-4,5-dihydro-1H-pyrazole-1-carbonyl)azetidin-3-ylidene)methyl)-3,3-difluoroindolin-2-one]	6.00 to 9.00
O=C(N1CC(=Cc2cc(F)ncc2F)C1)N1N=CC[C@H]1c1cc(F)cc(F)c1 [Compound 329]	6.00 to 9.00
CNC(=O)c1nc(OC2CN(C(=O)N3N=CC[C@H]3c3cc(F)cc(F)c3)C2)sc1Cl [Compound 273, (S)-5-chloro-2-((1-(5-(3,5-difluorophenyl)-4,5-dihydro-1H-pyrazole-1-carbonyl)azetidin-3-yl)oxy)-N-methylthiazole-4-carboxamide]	6.00 to 9.00
NC(=O)c1nc(OC2CN(C(=O)N3N=CC[C@H]3c3cc(F)cc(F)c3)C2)sc1Cl [Compound 274, (S)-5-chloro-2-((1-(5-(3,5-difluorophenyl)-4,5-dihydro-1H-pyrazole-1-carbonyl)azetidin-3-yl)oxy)thiazole-4-carboxamide]	6.00 to 9.00
CC(=O)N(C)c1cccc(OC2CN(C(=O)N3N=CCC3c3cc(F)cc(F)c3)C2)c1 (centres unmarked) [Compound 230, N-(3-((1-(5-(3,5-difluorophenyl)-4,5-dihydro-1H-pyrazole-1-carbonyl)azetidin-3-yl)oxy)phenyl)-N-methylacetamide]	6.00 to 9.00
N#Cc1cnc(N2CCN(C(=O)N3N=CC[C@H]3c3cc(F)cc(F)c3)CC2)nc1 [Compound 385, (S)-2-(4-(5-(3,5-difluorophenyl)-4,5-dihydro-1H-pyrazole-1-carbonyl)piperazin-1-yl)pyrimidine-5-carbonitrile]	6.00 to 9.00
N#Cc1nc(O[C@@H]2CCN(C(=O)N3N=CC[C@H]3c3cc(F)cc(F)c3)C2)ccc1Cl [Compound 339, 3-chloro-6-(((R)-1-((S)-5-(3,5-difluorophenyl)-4,5-dihydro-1H-pyrazole-1-carbonyl)pyrrolidin-3-yl)oxy)picolinonitrile]	6.00 to 9.00
N#CCCNc1ncc(F)c(OC2CN(C(=O)N3N=CC[C@H]3c3cc(F)cc(F)c3)C2)n1 [Compound 269, (S)-3-((4-((1-(5-(3,5-fluorophenyl)-4,5-dihydro-1H-pyrazole-1-carbonyl)azetidin-3-yl)oxy)-5-fluoropyrimidin-2-yl)amino)propanenitrile]	6.00 to 9.00
O=C(N1CC(=Cc2c(F)cc(F)cc2F)C1)N1N=CCC1c1cc(F)cc(F)c1 (centres unmarked) [Compound 304, (5-(3,5-difluorophenyl)-4,5-dihydro-1H-pyrazol-1-yl)(3-(2,4,6-trifluorobenzylidene)azetidin-1-yl)methanone]	6.00 to 9.00
O=C(N1CC(Oc2ccc(-c3ncc[nH]3)cc2)C1)N1N=CC[C@H]1c1cc(F)cc(F)c1 [Compound 219, (S)-(3-(4-(1H-imidazol-2-yl)phenoxy)azetidin-1-yl)(5-(3,5-difluorophenyl)-4,5-dihydro-1H-pyrazol-1-yl)methanone]	6.00 to 9.00
Cc1n[nH]c2cc(C=C3CN(C(=O)N4N=CC[C@H]4c4cc(F)cc(F)c4)C3)ccc12 [Compound 289, (S)-(5-(3,5-difluorophenyl)-4,5-dihydro-1H-pyrazol-1-yl)(3-((3-methyl-1H-indazol-6-yl)methylene)azetidin-1-yl)methanone]	6.00 to 9.00
O=C(N1CC(=Cc2cc3[nH][nH]c(=O)c3cc2F)C1)N1N=CC[C@H]1c1cc(F)cc(F)c1 [Compound 286, (S)-6-((1-(5-(3,5-difluorophenyl)-4,5-dihydro-1H-pyrazole-1-carbonyl)azetidin-3-ylidene)methyl)-5-fluoro-1H-315-indazol-3-one]	6.00 to 9.00
O=C(Nc1nc(N2CCN(C(=O)N3N=CC[C@H]3c3cc(F)cc(F)c3)CC2)ncc1F)C1CCCC1 [Compound 325, (S)—N-(2-(4-(5-(3,5-difluorophenyl)-4,5-dihydro-1H-pyrazole-1-carbonyl)piperazin-1-yl)-5-fluoropyrimidin-4-yl)cyclopentanecarboxamide]	6.00 to 9.00
COc1cccc(O[C@@H]2CCN(C(=O)N3N=CC[C@H]3c3cc(F)cc(F)c3)C2)n1 [Compound 356, ((S)-5-(3,5-difluorophenyl)-4,5-dihydro-1H-pyrazol-1-yl)((R)-3-((6-methoxypyridin-2-yl)oxy)pyrrolidin-1-yl)methanone]	6.00 to 9.00
CN(C(=O)OC(C)(C)C)c1nccc(O[C@@H]2CCN(C(=O)N3N=CC[C@H]3c3cc(F)cc(F)c3)C2)n1 [Compound 366, tert-butyl (4-(((R)1-((S)-5-(3,5-difluorophenyl)-4,5-dihydro-1H-pyrazole-1-carbonyl)pyrrolidin-3-yl)oxy)pyrimidin-2-yl)(methyl)carbamate]	6.00 to 9.00
O=C(N1CC(=Cc2ccc(Cl)nc2F)C1)N1N=CC[C@H]1c1cncc(F)c1 [Compound 294, (S)-(3-((6-chloro-2-fluoropyridin-3-yl)methylene)azetidin-1-yl)(5-(5-fluoropyridin-3-yl)-4,5-dihydro-1H-pyrazol-1-yl)methanone]	6.00 to 9.00
O=C(N1CC(=Cc2ccc3cn[nH]c3c2)C1)N1N=CC[C@H]1c1cc(F)cc(F)c1 [Compound 310, (S)-(3-((1H-indazol-6-yl)methylene)azetidin-1-yl)(5-(3,5-difluorophenyl)-4,5-dihydro-1H-pyrazol-1-yl)methanone]	6.00 to 9.00
N#Cc1cccc(O[C@@H]2CCN(C(=O)N3N=CC[C@H]3c3cc(F)cc(F)c3)C2)n1 [Compound 337, 6-(((R)-1-((S)-5-(3,5-difluorophenyl)-4,5-dihydro-1H-pyrazole-1-carbonyl)pyrrolidin-3-yl)oxy)picolinonitrile]	6.00 to 9.00
O=C1COc2ccc(OC3CN(C(=O)N4N=CC[C@H]4c4cc(F)cc(F)c4)C3)cc2N1 [Compound 201, (S)-6-((1-(5-(3,5-difluorophenyl)-4,5-dihydro-1H-pyrazole-1-carbonyl)azetidin-3-yl)oxy)-2H-benzo[b][1,4]oxazin-3(4H)-one]	6.00 to 9.00
O=C(N1CC[C@@H](Oc2cccc(Cl)c2)C1)N1N=CCC1c1ccccc1 (stereo partly drawn) [Compound 35, ((R)-3-(3-chlorophenoxy)pyrrolidin-1-yl)(5-phenyl-4,5-dihydro-1H-pyrazol-1-yl)methanone]	6.00 to 9.00
O=C(Nc1nc(N2CCN(C(=O)N3N=CC[C@H]3c3cc(F)cc(F)c3)CC2)ncc1F)C1CCC1 [Compound 328, (S)—N-(2-(4-(5-(3,5-difluorophenyl)-4,5-dihydro-1H-pyrazole-1-carbonyl)piperazin-1-yl)-5-fluoropyrimidin-4-yl)cyclobutanecarboxamide]	6.00 to 9.00

From patent US12662469B2 (SIRONAX LTD, priority 2018, dated 2026)
